From patent US8329895B2, “Cefdinir acid double salt and method for producing the same” (Zhejiang Adamerck Biopharmlabs Inc., priority 2008, dated 2012)
Where a name gives a salt, the structure may show the parent alone. Read-outs that look alike come from different tables or passages of the source.

Experiments:
[1] = Solubility of cefdinir and the double salts in water; format: physicochemical
From the text: The solubility of the compounds of the invention has been increased by 100 times. Table 1 lists the solubility of the compounds of the invention.)

[2] = Bioavailability comparison in beagles, capsules by intragastric administration, cefdinir concentration in venous blood; format: in vivo; details: for Time to peak / AUC(0-10) / Cmax / AUC(0-t): capsules containing 200 mg of cefdinir, intragastric administration; for AUC(0-10) / AUC(0-t): 0-10 h; for Cmax: cefdinir in venous blood; for Bioavailability percentage increase: compared with conventional cefdinir capsule
Description: Beagles, half male and half female, with body weight of 10 kg, were starved for 12 hrs and only water fed. The compounds of the invention were formulated into capsules containing 200 mg of cefdinir and fed to beagles by intragastric administration. The control group was administered with conventional cefdinir capsules. 3 hrs later, the beagles were fed with common food. At 0 h, 0.5 h, 1 h, 1.5 h, 2 h, 2.5 h, 3 h, 4 h, 6 h, 8 h, and 10 h after intragastric administration, 0.5 mL of venous blood was collected respectively to measure the concentration of cefdinir.

[3] = cited from earlier work
[4] = background statement; cited from earlier work
[5] = heating; salt disclosed in CN 1,415,615A; cited from earlier work
[6] = both sexes, beagle, dog, venous blood, po, 200 mg
[7] = both sexes, beagle, dog, venous blood, po, 200 mg, read-out: Cmax

C=CC1=C(C(=O)O)N2C(=O)C(NC(=O)/C(=N\O)c3csc(N)n3)C2SC1 (single isomer, unassigned; (-)) [Cefdinir potassium(0.5) hydrogen(1.5) sulfate]
Solubility [1]: Soluble
Time to peak [2]: 3 h
AUC(0-10) [2]: 213.40 µg·h/mL
Cmax [2]: 47650 ng/mL
Bioavailability percentage increase [2]: 109%

C=CC1=C(C(=O)O)N2C(=O)C(NC(=O)/C(=N\O)c3csc(N)n3)C2SC1 (single isomer, unassigned; (-)) [Cefdinir ammonium(0.5) hydrogen(1.5) sulfate]
Solubility [1]: Soluble
Time to peak [2]: 2.5 h
AUC(0-10) [2]: 160.31 µg·h/mL
Cmax [2]: 34120 ng/mL
Bioavailability percentage increase [2]: 57%

C=CC1=C(C(=O)O)N2C(=O)[C@@H](NC(=O)/C(=N\O)c3csc(N)n3)[C@H]2SC1 [Cefdinir]
bioavailability ([3]; capsule): 16-20%
bioavailability ([3]; liquid suspension): 25%
Solubility [1]: hardly soluble
Solubility in water [4]: insoluble

C=CC1=C(C(=O)O)N2C(=O)[C@@H](NC(=O)/C(=N\O)c3csc(N)n3)[C@H]2SC1 [Cefdinir potassium hydrogen sulfate, (−)-(6R,7R)-7-((Z)-2-(2-aminothiazole-4-yl)-2-hydroxyimino-acetylamino)-8-oxo-3-vinyl-5-thia-1-azabicyclo(4.2.0)oct-2-ene-2-carboxylic acid potassium hydrogen sulfate]
Solubility ([1]; potassium hydrogen sulfate): Slightly soluble
AUC(0-t) [2, 6]: 261 µg·h/mL
Cmax [2, 7]: 54100 ng/mL
Time to peak ([2]; potassium hydrogen sulfate): 2.5 h
Bioavailability percentage increase ([2]; potassium hydrogen sulfate): 156%

C=CC1=C(C(=O)O)N2C(=O)C(NC(=O)/C(=N\O)c3csc(N)n3)C2SC1 (single isomer, unassigned; (-)) [Cefdinir sodium(0.5) hydrogen(1.5) sulfate]
Solubility [1]: Soluble
Time to peak [2]: 3 h
Bioavailability percentage increase [2]: 135%

C=CC1=C(C(=O)O)N2C(=O)[C@@H](NC(=O)/C(=N\O)c3csc(N)n3)[C@H]2SC1 [Cefdinir sodium hydrogen sulfate, (−)-(6R,7R)-7-((Z)-2-(2-aminothiazole-4-yl)-2-hydroxyimino-acetylamino)-8-oxo-3-vinyl-5-thia-1-azabicyclo(4.2.0)oct-2-ene-2-carboxylic acid sodium hydrogen sulfate]
Solubility ([1]; sodium hydrogen sulfate): Slightly soluble
AUC(0-10) ([2]; sodium hydrogen sulfate): 255.27 µg·h/mL
Cmax ([2]; sodium hydrogen sulfate): 65430 ng/mL
Time to peak ([2]; sodium hydrogen sulfate): 3 h
Bioavailability percentage increase ([2]; sodium hydrogen sulfate): 149%

C=CC1=C(C(=O)O)N2C(=O)[C@@H](NC(=O)/C(=N\O)c3csc(N)n3)[C@H]2SC1 [Cefdinir potassium dihydrogen phosphate, (−)-(6R,7R)-7-((Z)-2-(2-aminothiazole-4-yl)-2-hydroxyimino-acetylamino) 8-oxo-3-vinyl-5-thia-1-azabicyclo(4.2.0)oct-2-ene-2-carboxylic acid potassium dihydrogen phosphate]
AUC(0-10) ([2]; phosphate): 152.15 µg·h/mL
Cmax ([2]; phosphate): 30370 ng/mL
Time to peak ([2]; phosphate): 3 h
Bioavailability percentage increase ([2]; phosphate): 49%

C=CC1=C(C(=O)[O-])N2C(=O)C(NC(=O)C(=NO)c3csc(N)n3)C2SC1.[Na+] (stereo not drawn) [sodium cefdinir]
Temperature at which the salt turns black [5]: 190 °C
Temperature at which the salt turns yellow [5]: about 160 °C

C=CC1=C(C(=O)O)N2C(=O)C(NC(=O)/C(=N\O)c3csc(N)n3)C2SC1 (single isomer, unassigned; (-))
AUC(0-t) [2, 6]: 240 µg·h/mL
Cmax [2, 7]: 50200 ng/mL

C=CC1=C(C(=O)O)N2C(=O)[C@@H](NC(=O)/C(=N\O)c3csc(N)n3)[C@H]2SC1 [Cefdinir ammonium hydrogen sulfate, (−)-(6R,7R)-7-((Z)-2-(2-aminothiazole-4-yl)-2-hydroxyimino-acetylamino)-8-oxo-3-vinyl-5-thia-1-azabicyclo(4.2.0)oct-2-ene-2-carboxylic acid ammonium hydrogen sulfate]
Solubility ([1]; ammonium hydrogen sulfate): Slightly soluble
AUC(0-10) ([2]; ammonium hydrogen sulfate): 202.18 µg·h/mL
Time to peak ([2]; ammonium hydrogen sulfate): 3 h
Cmax ([2]; ammonium hydrogen sulfate): 43630 ng/mL
Bioavailability percentage increase ([2]; ammonium hydrogen sulfate): 98%

C=CC1=C(C(=O)O)N2C(=O)[C@@H](NC(=O)/C(=N\O)c3csc(N)n3)[C@H]2SC1 [Cefdinir sodium dihydrogen phosphate, (−)-(6R,7R)-7-((Z)-2-(2-aminothiazole-4-yl)-2-hydroxyimino-acetylamino)-8-oxo-3-vinyl-5-thia-1-azabicyclo(4.2.0)oct-2-ene-2-carboxylic acid sodium dihydrogen phosphate]
Solubility ([1]; phosphate): Slightly soluble
AUC(0-10) ([2]; phosphate): 123.55 µg·h/mL
Cmax ([2]; phosphate): 27280 ng/mL
Time to peak ([2]; phosphate): 2.5 h
Bioavailability percentage increase ([2]; phosphate): 20%
